Reference: patent US12234257B2, “Triterpene saponin derivative and use thereof” (KOREA INSTITUTE OF SCIENCE AND TECHNOLOGY, priority 2020, dated 2025)

What was measured:
[1] = system: MPTP-induced in vivo PD model; assay: Rotarod test; parameters: species or system mice (C57BL/6j); conditions: MPTP 30 mg/kg i.p. mice; for behavioral performance in rotarod test (latency to fall): 2 hours and 24 hours after last MPTP
Procedure: In this study, all animal management and experimental protocols were performed in compliance with guidelines of the Institutional Animal Care and Use Committee of the Korea Institute of Science and Technology. 40 mice (C57BL/6j, male, 8 weeks old) were purchased from SLC Inc. (Shizuoka, Japan). After arrival, every four mice were hosed in each cage (30 cm×18.5 cm×13 cm) and allowed free access to feed and water. All mice were housed under the following constant conditions: lights on from 6:00 to 18:00, a temperature of 23° C.±1° C., and a humidity of 50%±10%. After 7 days of a habituation period, the mice were used in the experiments according to standard protocols. 40 mice were classified into five groups such that eight mice belonged to each group. After the habituation period, all mice were orally administered with a drug every day. […] Each mouse was administered with a single dose of saline/MPTP injection every day for 8 days. At 7 days after the final MPTP injection, all mice were sacrificed by cervical dislocation, and then the whole brain, SNpc, and striatum (ST) were excised for biochemical analysis. […] A rotarod test was performed according to a known method with minimal modification (Borlongan C. V. et al., Pharmacology Biochemistry and Behavior. 1995, 52:225; Hu X. et al., Neuropharmacology, 2017, 117:352). Briefly, the test consisted of a pretraining section and a test section. The pretraining section was performed for consecutive 4 days. The mice were positioned in a cylinder of a rotarod apparatus such that tails of all mice faced an operator and trained for 300 seconds at a constant speed of 16 rpm. During the 300 seconds, mice falling to the floor were placed back on the cylinder by the operator. All mice were trained three times in total every day at an interval of about 30 minutes before administration of MPTP. […] Latency to fall off the rotarod was recorded for each mouse. […] Latency to fall off the rotarod was measured for each mouse. […] An average time of three tests was calculated to evaluate balance, grip strength, and motor coordination.

TH and α-synuclein = assay: Western blot of TH and α-synuclein in ST and SN of MPTP-impaired mice; assay type: in vivo, mice (C57BL/6j); conditions: for α-synuclein level: vs MPTP-treated mice; for TH level: MPTP mice
Procedure: 40 mice were classified into five groups such that eight mice belonged to each group. After the habituation period, all mice were orally administered with a drug every day. While the mice of Groups 1 and 2 were administered with saline (p.o.), the mice of Groups 3, 4, and 5 were administered with 5 mg/kg ropinirole (p.o.), 5 mg/kg AKNS-2 (p.o.), and 15 mg/kg AKNS-2 (p.o.), respectively. From the 5th day therefrom, the mice of Group 1 were intraperitoneally administered with a saline at 1 hour after gavage feeding of saline, and the mice of Groups 2, 3, 4, and 5 were administered with 30 mg/kg MPTP (i.p.) at 1 hour after gavage feeding of saline, ropinirole, AKNS-2 (5 mg/kg), and AKNS-2 (15 mg/kg), respectively. Each mouse was administered with a single dose of saline/MPTP injection every day for 8 days. At 7 days after the final MPTP injection, all mice were sacrificed by cervical dislocation, and then the whole brain, SNpc, and striatum (ST) were excised for biochemical analysis.
On the 7th day after the last administration of MPTP, SNpc and ST of each mouse were carefully excised and stored at −80° C. until use. Thereafter, brain tissue of SNpc and ST was homogenized in a PRO-PREP™ lysis buffer (iNtRON, Gyeonggi, Korea) containing a phosphatase inhibitor cocktail set I (Sigma-Aldrich, Mo., USA). After shaking at 4° C. for 30 minutes, homogenates were centrifuged at 4° C. at 13000×g for 20 minutes, and a supernatant obtained therefrom was collected and added to a new 1.5 mL tube. A concentration of proteins contained in the supernatant was measured by the Bradford method. A part of the supernatant was mixed with the same volume of a loading buffer and denatured in a heater at 99° C. for 5 minutes for western blot analysis. The remaining supernatant was stored at −80° C. for subsequent tests for MAO-B activity and DA level using an ELISA kit.
Protein markers contained in lysates of the SH-SY5Y cells and brain tissue of the mice (SNpc and ST) were measured by western blot analysis. […] Then, proteins separated on the gel were transferred to a polyvinylidene fluoride (PVDF) membrane for 45 minutes using a Trans-Blot Turbo Transfer System (Bio-Rad, USA). The membrane was washed with tris-buffered saline with 0.1% Tween 20, TBST) for 5 minutes and then blocked by 5% skim milk dissolved in a TBST buffer. The membrane was further incubated with monoclonal primary antibodies derived from rabbits (anti-GAPDH, anti-AMPK, anti-p-AMPK, anti-ULK, anti-p-ULK555, anti-Erk, anti-p-Erk, anti-mTOR, anti-p-mTOR, anti-LC3B, anti-TH, and anti-α-synuclein antibodies). The primary antibodies were diluted in a blocking buffer at a ratio of 1:1000 and incubated overnight at 4° C. […] The intensity of the protein blots was quantified using Multi Gauge software (Fujifilm, Japan).

DA level in ST = assay: Measurement of DA level in ST (ELISA); assay type: in vivo, mice (C57BL/6j); conditions: MPTP 30 mg/kg mice
Procedure: 40 mice were classified into five groups such that eight mice belonged to each group. After the habituation period, all mice were orally administered with a drug every day. While the mice of Groups 1 and 2 were administered with saline (p.o.), the mice of Groups 3, 4, and 5 were administered with 5 mg/kg ropinirole (p.o.), 5 mg/kg AKNS-2 (p.o.), and 15 mg/kg AKNS-2 (p.o.), respectively. […]
On the 7th day after the last administration of MPTP, SNpc and ST of each mouse were carefully excised and stored at −80° C. until use. […] A concentration of proteins contained in the supernatant was measured by the Bradford method. […]
DA levels in ST were measured using a competitive ELISA kit (Abnova, Taipei City, Taiwan) according to the manufacturer's instructions. […] After determining a concentration of proteins contained in the supernatant, the DA level in each brain sample was detected twice using the ELISA kit. Absorbance was measured using a microreader (BioTek, Vt., USA) at 450 nm, and the intensity was inversely proportional to the DA level. The DA level was expressed as ng/mg protein.

[2] = both ST and SN, 5 mg/kg and 15 mg/kg p.o.

## C[C@@H]1O[C@@H](O[C@@H]2[C@@H](O)[C@H](O[C@@H]3[C@@H](O[C@@H]4OC[C@@H](O)[C@H](O)[C@H]4O)[C@@H](O)[C@H](O[C@H]4[C@H](OC(=O)[C@]56CCC(C)(C)C[C@H]5C5=CC[C@@H]7[C@@]8(C)C[C@H](O)[C@H](O[C@@H]9O[C@H](CO)[C@@H](O)[C@H](O[C@@H]%10OC[C@@H](O)[C@H](O)[C@H]%10O)[C@H]9O)[C@@](C)(CO)[C@@H]8CC[C@@]7(C)[C@]5(C)C[C@H]6O)OC[C@H](O)[C@@H]4O)O[C@H]3C)OC[C@H]2O)[C@H](O)[C@H](O)[C@H]1O [Compound 1, 3-O-β-D-xylopyranosyl-(1→3)-β-D-glucopyranosylpolygalacic acid 28-O-α-L-rhamnopyranosyl-(1→3)-β-D-xylopyranosyl-(1→4)-[β-D-xylopyranosyl-(1→3)]-α-L-rhamnopyranosyl-(1→2)-α-L-arabinopyranosyl ester]
[1]; 5 mg/kg p.o., at 24 hours
  behavior performance in rotarod test (latency to fall): significantly improved MPTP-impaired behavior performance
[1]; 15 mg/kg p.o.
  behavioral performance in rotarod test (latency to fall): the impairment was reversed
TH and α-synuclein; [2]
  α-synuclein level: a significant decrease in the α-synuclein level
  TH level: considerably reversed
DA level in ST; 15 mg/kg p.o.
  DA level in ST: the decrease in the DA level induced by MPTP was restored

## CCCN(CCC)CCc1cccc2c1CC(=O)N2 [ropinirole, reference compound]
[1]; 5 mg/kg p.o.
  behavioral performance in rotarod test (latency to fall): the impairment was reversed
TH and α-synuclein; ST and SN, 5 mg/kg p.o.
  α-synuclein level: a significant decrease in the α-synuclein level
TH and α-synuclein; both ST and SN, 5 mg/kg p.o.
  TH level: considerably reversed
DA level in ST; 5 mg/kg p.o.
  DA level in ST: the decrease in the DA level induced by MPTP was restored
